In US10316371B2, “Screening methods for identifying specific Staphylococcus aureus inhibitors” (TRANA DISCOVERY, INC., priority 2011, dated 2019):
In brackets after ≈: the same amount, converted by molar mass. Like-named read-outs stand apart in the source and are kept apart here.

What was measured:
Type in all cases: cell-based
[1] = system: E. coli 25922; assay: MIC; conditions: Escherichia coli; E. coli 25922; read-out: MIC
[2] = system: SA 2 (Staphylococcus aureus 2); assay: MIC; conditions: SA 2, read-out: MIC
Protocol: (§1) The strains included Staphylococcus aureus, Methicillin Resistant (ATCC 33591), Methicillin-Resistant Staphylococcus aureus USA300, Staphylococcus aureus 158, Staphylococcus aureus 22, Staphylococcus aureus 2, Staphylococcus aureus (ATCC 29213), and Staphylococcus aureus 182.
(§2) A series of compounds were evaluated for their activity against drug resistant S. aureus, including MSSA and MRSA strains.

[3] = system: SA 22 (Staphylococcus aureus 22); assay: MIC; conditions: SA 22, read-out: MIC
Protocol: as §1, §2

[4] = system: SA 33591 (Staphylococcus aureus, Methicillin Resistant (ATCC 33591)); assay: MIC; conditions: ATCC33591, SA 33591, read-out: MIC
Protocol: as §1, §2

[5] = system: SA USA 300 (Methicillin-Resistant Staphylococcus aureus USA300); assay: MIC; conditions: SA USA 300, read-out: MIC
Protocol: as §1, §2

[6] = system: non-S. aureus bacterial strains (Staph epi, E. faecium, E. faecalis, S. pneumoniae); assay: Re-test against other bacteria; conditions: Gm (+) organisms (e.g. Staph epi, E. faecium and E. faecalis)
Text: The compounds were re-tested against other bacteria, including Staphylococcus epidermidis (ATCC 35984), Staphylococcus epidermidis (MRSE), E. faecium 134529, E. faecium 145494, […], E. faecium 161651, S. pneumoniae 49619, and S. pneumoniae 149389.
In some cases, the compounds were as active, or nearly so, against the non-S. aureus bacterial strains. While not wishing to be bound to a particular theory, it is believed that these compounds function by stabilizing or inhibiting the complex between the mRNA Shine-Dalgarno sequence, and the anti-Shine Delgarno sequence in the ribosome, and inhibit protein translation in this manner, rather than by inhibiting the ASL Arg, and the codon encoding arginine (AGA), which is specific to S. aureus.

[7] = Mammalian Cell Toxicity; conditions: mouse, 3T3 cells
[8] = system: K. pneumoniae UMM; assay: MIC; conditions: Klebsiella pneumoniae; K. pneumoniae UMM; read-out: MIC
[9] = system: K. pneumoniae 700603; assay: MIC; conditions: Klebsiella pneumoniae; K. pneumoniae 700603; read-out: MIC
[10] = system: S. aureus ATCC 29213; assay: Resistance passaging experiment; conditions: Staphylococcus aureus
Protocol: (§3) Two compounds (#880 and #169) were tested in time-kill assays against S. aureus strain 29213. These compounds were then used to attempt to select for resistant variants by passaging at sub-MIC concentrations for 20 passages.
The selected strain for this experiment was S. aureus ATCC 29213. A frozen glycerol stock was streaked onto MH-II agar and grown overnight at 37° C. The next day, 3-5 colonies were picked and grown in 3 mL of MH-II broth at 37° C. with 200 rpm shaking for approximately 4 hours. A 2-fold microdilution (in round-bottom, 96-well plates) was made for each compound being tested. CLSI guidelines for broth microdilution were followed. Using the bacteria grown from the overnight colonies, each microdilution was inoculated at a final concentration of 5×10^5 colony forming units (CFU)/mL. The microdilutions were incubated at 37° C. for 16 to 20 hours, after which the minimal inhibitory concentration (MIC) of each was read visually. The MIC is defined as the lowest concentration of compound resulting in no visible bacterial growth. This activity is recorded as the MIC at Passage 0. The contents of the well in the next dilution lower in concentration than the MIC (i.e., ½ the MIC) was mixed with a micropipette and 50 μL was transferred to 3 mL of fresh MH-II broth. This was grown at 37° C. with 200 rpm shaking for approximately 4 hours, at which time the sample was turbid. A 1 mL aliquot of this sample was added to a cryovial containing 300 μL of glycerol. This was marked as passage 1, vortexed, than placed in a −80° C. freezer for storage. The rest of the culture was adjusted to a bacterial concentration of 1×10^6cfu/mL (OD600 of 0.004), which was then used to inoculate a microdilution of the same compound (final bacterial concentration of 5×10^5 cfu/mL). This was incubated at 37° C. for 16 to 20 hours. After that time the MIC was once again read and recorded as the MIC at Passage 1. This process was repeated through 20 passages. Ciprofloxacin was included as a control and an untreated sample was also passaged 20 times as a negative control.

[11] = system: E. coli ESBL 4; assay: MIC; conditions: Escherichia coli, ESBL4; E. coli ESBL 4; read-out: MIC
[12] = system: Staphylococcus aureus strains (ATCC 33591, USA300, 158, 22, 2, ATCC 29213, 182); assay: MIC screening of lead compounds against S. aureus strains; conditions: including vancomycin and methicillin resistant strains
Text: A series of lead compounds identified in the in vitro screening were subjected to in vivo screening, to determine their effectiveness against S. aureus. The strains included Staphylococcus aureus, Methicillin Resistant (ATCC 33591), Methicillin-Resistant Staphylococcus aureus USA300, Staphylococcus aureus 158, Staphylococcus aureus 22, Staphylococcus aureus 2, Staphylococcus aureus (ATCC 29213), and Staphylococcus aureus 182.

[13] = system: S. aureus strain 29213; assay: Time-kill experiments; conditions: for reduction of bacterial counts / reduction of bacterial counts (killing): by 8 hours; for time-kill activity (cidal / static): 8 hrs
Protocol: as §3
Twenty mL of MH-II media warmed to 37° C. was seeded with log-phase growth S. aureus strain 29213 at 1×10^6 cfu/mL in 50 mL erlenmeyer shake-flasks. Compound was added at 2× and 4× the MIC value. Negative controls (no drug) and positive drug controls (vancomycin at 2× and 4× the MIC) were included in the experiment. Flasks were shaken at 200 rpm and 37° C. Samples were taken at the times indicated (0, 2, 4, 6, 8 and 24 hrs post inoculation) and bacterial loads were quantified by limiting dilution assay.

[14] = ATCC29213, read-out: MIC in S. aureus 29213, Passage 14, passaged at sub-MIC
[15] = ATCC29213, read-out: MIC in S. aureus 29213, Passage 15, passaged at sub-MIC
[16] = ATCC29213, read-out: MIC in S. aureus 29213, Passage 16, passaged at sub-MIC
[17] = ATCC29213, read-out: MIC in S. aureus 29213, Passage 17, passaged at sub-MIC
[18] = ATCC29213, read-out: MIC in S. aureus 29213, Passage 18, passaged at sub-MIC
[19] = ATCC29213, read-out: MIC in S. aureus 29213, Passage 19, passaged at sub-MIC
[20] = ATCC29213, read-out: MIC in S. aureus 29213, Passage 20, passaged at sub-MIC
[21] = ATCC29213, read-out: MIC in S. aureus 29213, second Passage 20 line of Table 4 (untreated culture passaged 20 times)

Structure (SMILES)	MIC [1] [µg/mL]	MIC [2] [µg/mL]	MIC [3] [µg/mL]	MIC [4] [µg/mL]	MIC [5] [µg/mL]	spectrum of activity [6]	CC50 [7] [µg/mL]	MIC [8] [µg/mL]	MIC [9] [µg/mL]	MIC [10, 14] [µg/mL]	MIC [10, 15] [µg/mL]	MIC [10, 16] [µg/mL]	MIC [10, 17] [µg/mL]	MIC [10, 18] [µg/mL]	MIC [10, 19] [µg/mL]	MIC [10, 20] [µg/mL]	MIC [10, 21] [µg/mL]	MIC [11] [µg/mL]	activity on types of S. aureus [12]	reduction of bacterial counts ([13]; 2× the MIC) [log10]	also measured
Brc1ccc(-c2nc(N3CCNCC3)c3ccccc3n2)cc1 [Compound #880, 2-(4-bromophenyl)-4-(1-piperazinyl)-quinazoline]	64 (≈ 173 µM)	4 (≈ 10.8 µM)	8 (≈ 21.7 µM)	8 (≈ 21.7 µM)	8 (≈ 21.7 µM)	broad spectrum for Gm (+) organisms	2.11 (≈ 5.71 µM)	> 128	> 128	16 (≈ 43.3 µM)	16 (≈ 43.3 µM)	16 (≈ 43.3 µM)	16 (≈ 43.3 µM)	16 (≈ 43.3 µM)	32 (≈ 86.7 µM)	32 (≈ 86.7 µM)	16 (≈ 43.3 µM)	64 (≈ 173 µM)	showed activity on all types of S. aureus	2.5	MIC ([10]; ATCC29213, read-out: MIC in S. aureus 29213, Passage 8, passaged at sub-MIC): 16 µg/mL (≈ 43.3 µM); MIC ([10]; ATCC29213, read-out: MIC in S. aureus 29213, Passage 10, passaged at sub-MIC): 16 µg/mL (≈ 43.3 µM); MIC ([10]; ATCC29213, read-out: MIC in S. aureus 29213, Passage 11, passaged at sub-MIC): 16 µg/mL (≈ 43.3 µM); MIC ([10]; ATCC29213, read-out: MIC in S. aureus 29213, Passage 12, passaged at sub-MIC): 16 µg/mL (≈ 43.3 µM); MIC ([10]; ATCC29213, read-out: MIC in S. aureus 29213, Passage 13, passaged at sub-MIC): 16 µg/mL (≈ 43.3 µM); time-kill activity (cidal / static) ([13]; 4× the MIC): rapidly cidal; bacterial counts by 24 hrs post treatment ([13]; 4× the MIC, 24 hrs): below detectable levels; reduction of bacterial counts (killing) ([13]; 4× the MIC): > 3 log10
Cc1ccc2nc(-c3ccc(NC(=O)CN4CCN(CCO)CC4)cc3)sc2c1 [Compound #169, 2-[4-(2-hydroxyethyl)-1-piperazinyl]-N-[4-(6-methyl-1,3-benzothiazol-2-yl)phenyl]acetamide]	> 128	8 (≈ 19.5 µM)	16 (≈ 39 µM)	32 (≈ 77.9 µM)	8 (≈ 19.5 µM)	broad spectrum for Gm (+) organisms	< 2	> 128	> 128	32 (≈ 77.9 µM)	32 (≈ 77.9 µM)	32 (≈ 77.9 µM)	32 (≈ 77.9 µM)	32 (≈ 77.9 µM)	32 (≈ 77.9 µM)	32 (≈ 77.9 µM)	32 (≈ 77.9 µM)	> 128	showed activity on all types of S. aureus	1	MIC ([10]; ATCC29213, read-out: MIC in S. aureus 29213, Passage 4, passaged at sub-MIC): 32 µg/mL (≈ 77.9 µM); time-kill activity (cidal / static) ([13]; 2× the MIC): static activity; time-kill result by 24 hrs post treatment ([13]; 2× the MIC, 24 hrs): regrowth of bacteria; time-kill activity (cidal / static) ([13]; 4× the MIC): static activity; reduction of bacterial counts (killing) ([13]; 4× the MIC): 1 log10
